From US8846933B2, “N-link hydroxamic acid derivatives useful as antibacterial agents” (Pfizer Inc., priority 2009, dated 2014)

Assays:
[1] = tested on: Escherichia coli EC-1: VOGEL, mouse virulent; assay: MIC determination (CLSI), strain EC-1; format: cell-based; conditions: strain EC-1, unit assumed
Outline: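 The mouse-virulent VOGEL isolate of E. coli, EC-1, served as test organism. Minimum inhibitory concentration was measured by CLSI dilution methodology (M7-A7; M100-S18 standards).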

[2] = tested on: Pseudomonas aeruginosa UI-18: Wild-type (PA-7); assay: MIC determination (CLSI), strain PA-7; format: cell-based; conditions: strain PA-7, unit assumed
Outline: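 MIC determined by broth dilution per CLSI M7-A7 guidelines with M100-S18 interpretive standards. Test organism: wild-type Pseudomonas aeruginosa UI-18, designated PA-7.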

[3] = generated in the same manner as in Table 4

SMILES	EC-1 (MIC) [1] [µg/mL]	PA-7 (MIC) [2] [µg/mL]	EC-1 (MIC) [1, 3] [µg/mL]	PA-7 (MIC) [2, 3] [µg/mL]
Cc1cc(-c2ccn(CCC(C)(C(=O)NO)S(C)(=O)=O)c(=O)c2)ccc1OCCO (centres unmarked) [Example 235, N-hydroxy-4-{4-[4-(2-hydroxyethoxy)-3-methylphenyl]-2-oxopyridin-1(2H)-yl}-2-methyl-2-(methylsulfonyl)butanamide]	8	8		
COc1ccccc1-c1ccn(CCC(C)(C(=O)NO)S(C)(=O)=O)c(=O)c1 (centres unmarked) [Example 120, N-hydroxy-4-[4-(2-methoxyphenyl)-2-oxopyridin-1(2H)-yl]-2-methyl-2-(methylsulfonyl)butanamide]			64	16
Cc1ccc(-c2ccn(CCC(C)(C(=O)NO)S(C)(=O)=O)c(=O)c2)o1 (centres unmarked) [Example 158]			64	64
CC(CCn1ccc(-c2cccc(Cl)c2)cc1=O)(C(=O)NO)S(C)(=O)=O (centres unmarked) [Example 114, 4-[4-(3-chlorophenyl)-2-oxopyridin-1(2H)-yl]-N-hydroxy-2-methyl-2-(methylsulfonyl)butanamide]			2	4
C[C@@](CCn1ccc(-c2c(F)cccc2F)cc1=O)(C(=O)NO)S(C)(=O)=O [Example 353]	4	1		
CC(CCn1ccc(-c2cccc(-n3cccn3)c2)cc1=O)(C(=O)NO)S(C)(=O)=O (centres unmarked) [Example 111, N-hydroxy-2-methyl-2-(methylsulfonyl)-4-{2-oxo-4-[3-(1H-pyrazol-1-yl)phenyl]pyridin-1(2H)-yl}butanamide]			> 64	> 64
CC(CCn1ccc(-c2cccc(CO)c2)cc1=O)(C(=O)NO)S(C)(=O)=O (centres unmarked) [Example 144, N-hydroxy-4-{4-[3-(hydroxymethyl)phenyl]-2-oxopyridin-1(2H)-yl}-2-methyl-2-(methylsulfonyl)butanamide]			> 64	> 64
C[C@@](CCn1ccc(-c2ccc(Oc3ccnc4ccccc34)cc2)cc1=O)(C(=O)NO)S(C)(=O)=O [Example 444]	0.125	2		
CC(CCn1ccc(-c2ccc(OCCCCCO)cc2)cc1=O)(C(=O)NO)S(C)(=O)=O (centres unmarked) [Example 229, N-hydroxy-4-[4-{4-[(5-hydroxypentyl)oxy]phenyl}-2-oxopyridin-1(2H)-yl]-2-methyl-2-(methylsulfonyl)butanamide]	0.25	2		
C[C@@](CCn1ccc(-c2ccc(Oc3nccc4occc34)cc2)cc1=O)(C(=O)NO)S(C)(=O)=O [Example 437, (2R)-4-{4-[4-(furo[3,2-c]pyridin-4-yloxy)phenyl]-2-oxopyridin-1(2H)-yl}-N-hydroxy-2-methyl-2-(methylsulfonyl)butanamide]	0.25	4		
CC(CCn1ccc(-c2ccc(OCCCn3cncn3)cc2Cl)cc1=O)(C(=O)NO)S(C)(=O)=O (centres unmarked) [Example 291, 4-[4-{2-chloro-4-[3-(1H-1,2,4-triazol-1-yl)propoxy]phenyl}-2-oxopyridin-1(2H)-yl]-N-hydroxy-2-methyl-2-(methylsulfonyl)butanamide]	16	16		
Cc1ccnc2ccc(-c3ccn(CCC(C)(C(=O)NO)S(C)(=O)=O)c(=O)c3)cc12 (centres unmarked) [Example 302, N-hydroxy-2-methyl-4-[4-(4-methylquinolin-6-yl)-2-oxopyridin-1(2H)-yl]-2-(methylsulfonyl)butanamide]	64	16		
CC(CCn1ccc(-c2ccc(-c3ccccc3)c(F)c2)cc1=O)(C(=O)NO)S(C)(=O)=O (centres unmarked) [Example 197, 4-[4-(2-fluorobiphenyl-4-yl)-2-oxopyridin-1(2H)-yl]-N-hydroxy-2-methyl-2-(methylsulfonyl)butanamide]	0.25	2		
CC(CCn1ccc(-c2cnc3ccccc3c2)cc1=O)(C(=O)NO)S(C)(=O)=O (centres unmarked) [Example 124, N-hydroxy-2-methyl-2-(methylsulfonyl)-4-(2-oxo-4-quinolin-3-ylpyridin-1(2H)-yl)butanamide]			16	16
C[C@@](CCn1ccc(-c2ccc3cnc(N)cc3c2)cc1=O)(C(=O)NO)S(C)(=O)=O [Example 485]	64	32		
COc1ccc(F)cc1-c1ccn(CCC(C)(C(=O)NO)S(C)(=O)=O)c(=O)c1 (centres unmarked) [Example 173, 4-[4-(5-fluoro-2-methoxyphenyl)-2-oxopyridin-1(2H)-yl]-N-hydroxy-2-methyl-2-(methylsulfonyl)butanamide]			64	64
Cc1cnc2ccc(-c3ccn(CCC(C)(C(=O)NO)S(C)(=O)=O)c(=O)c3)cc2c1 (centres unmarked) [Example 301, N-hydroxy-2-methyl-4-[4-(3-methylquinolin-6-yl)-2-oxopyridin-1(2H)-yl]-2-(methylsulfonyl)butanamide]	4	16		

SMILES	EC-1 (MIC) [1] [µg/mL]	PA-7 (MIC) [2] [µg/mL]	EC-1 (MIC) [1, 3] [µg/mL]	PA-7 (MIC) [2, 3] [µg/mL]
CC(CCn1ccc(-c2ccc(O)cc2)cc1=O)(C(=O)NO)S(C)(=O)=O (centres unmarked) [Example 97, N-hydroxy-4-[4-(4-hydroxyphenyl)-2-oxopyridin-1(2H)-yl]-2-methyl-2-(methylsulfonyl)butanamide]			> 64	> 64
C[C@@](CCn1ccc(-c2ccc(OCCCCO)cc2)cc1=O)(C(=O)NO)S(C)(=O)=O [Example 279, (2R)-N-hydroxy-4-{4-[4-(4-hydroxybutoxy)phenyl]-2-oxopyridin-1(2H)-yl}-2-methyl-2-(methylsulfonyl)butanamide]	0.5	1		
C[C@@](CCn1ccc(-c2ccc(CCC#N)cc2)cc1=O)(C(=O)NO)S(C)(=O)=O [Example 347, (2R)-4-{4-[4-(2-cyanoethyl)phenyl]-2-oxopyridin-1(2H)-yl}-N-hydroxy-2-methyl-2-(methylsulfonyl)butanamide]	64	4		
CC(CCn1ccc(-c2cc3ccccc3[nH]2)cc1=O)(C(=O)NO)S(C)(=O)=O (centres unmarked) [Example 91]			4	16
CC(CCn1ccc(-c2ccc(C(=O)CO)cc2)cc1=O)(C(=O)NO)S(C)(=O)=O (centres unmarked) [Example 73, 4-[4-(4-glycoloylphenyl)-2-oxopyridin-1(2H)-yl]-N-hydroxy-2-methyl-2-(methylsulfonyl)butanamide]			> 64	64
Cc1cnc(-c2ccc(-c3ccn(CC[C@](C)(C(=O)NO)S(C)(=O)=O)c(=O)c3)cc2)cn1 [Example 457, (2R)-N-hydroxy-2-methyl-4-{4-[4-(5-methylpyrazin-2-yl)phenyl]-2-oxopyridin-1(2H)-yl}-2-(methylsulfonyl)butanamide]	0.5	2		
CC(=O)Nc1cccc(-c2ccn(CCC(C)(C(=O)NO)S(C)(=O)=O)c(=O)c2)c1 (centres unmarked) [Example 133, 4-[4-(3-acetamidophenyl)-2-oxopyridin-1(2H)-yl]-N-hydroxy-2-methyl-2-(methylsulfonyl)butanamide]			> 64	> 64
Cc1nnn(-c2ccc(-c3ccn(CC[C@](C)(C(=O)NO)S(C)(=O)=O)c(=O)c3)cc2)n1 [Example 379, (2R)-N-hydroxy-2-methyl-2-(methylsulfonyl)-4-{4-[4-(5-methyl-2H-tetrazol-2-yl)phenyl]-2-oxopyridin-1(2H)-yl}butanamide]	0.5	2		
CC(CCn1ccc(-c2cc(F)ccc2O)cc1=O)(C(=O)NO)S(C)(=O)=O (centres unmarked) [Example 117, 4-[4-(5-fluoro-2-hydroxyphenyl)-2-oxopyridin-1(2H)-yl]-N-hydroxy-2-methyl-2-(methylsulfonyl)butanamide]			> 64	> 64
CC(CCn1ccc(-c2cccc(F)c2)cc1=O)(C(=O)NO)S(C)(=O)=O (centres unmarked) [Example 187, 4-[4-(3-fluorophenyl)-2-oxopyridin-1(2H)-yl]-N-hydroxy-2-methyl-2-(methylsulfonyl)butanamide]	8	2		
C[C@@](CCn1ccc(-c2ccc3c(c2)C(=O)OC3)cc1=O)(C(=O)NO)S(C)(=O)=O [Example 486]	> 64	> 64		
C[C@@](CCn1ccc(-c2ccc(-n3ccnc3)cc2)cc1=O)(C(=O)NO)S(C)(=O)=O [Example 388, (2R)-N-hydroxy-4-{4-[4-(1H-imidazol-1-yl)phenyl]-2-oxopyridin-1(2H)-yl}-2-methyl-2-(methylsulfonyl)butanamide]	16	16		
CC(CCn1ccc(-c2ccc(OCCN3CCCC3)cc2)cc1=O)(C(=O)NO)S(C)(=O)=O (centres unmarked) [Example 74]			> 64	> 64
COc1ccc(-c2ccn(CCC(C)(C(=O)NO)S(C)(=O)=O)c(=O)c2)c(F)c1F (centres unmarked) [Example 123, 4-[4-(2,3-difluoro-4-methoxyphenyl)-2-oxopyridin-1(2H)-yl]-N-hydroxy-2-methyl-2-(methylsulfonyl)butanamide]			2	2
CC(C)(CO)c1ccc(-c2ccn(CC[C@](C)(C(=O)NO)S(C)(=O)=O)c(=O)c2)cc1 [Example 350, (2R)-N-hydroxy-4-{4-[4-(2-hydroxy-1,1-dimethylethyl)phenyl]-2-oxopyridin-1(2H)-yl}-2-methyl-2-(methylsulfonyl)butanamide]	16	16		
C[C@@](CCn1ccc(-c2ccc(Oc3ccc(Cl)cn3)cc2)cc1=O)(C(=O)NO)S(C)(=O)=O [Example 430, (2R)-4-[4-{4-[(5-chloropyridin-2-yl)oxy]phenyl}-2-oxopyridin-1(2H)-yl]-N-hydroxy-2-methyl-2-(methylsulfonyl)butanamide]	0.125	2		
CC(=O)c1cccc(-c2ccn(CCC(C)(C(=O)NO)S(C)(=O)=O)c(=O)c2)c1 (centres unmarked) [Example 127, 4-[4-(3-acetylphenyl)-2-oxopyridin-1(2H)-yl]-N-hydroxy-2-methyl-2-(methylsulfonyl)butanamide]			16	32
